In PubChem BioAssay AID248 (DTP/NCI, 2004):
Where “and” joins values, the source holds several entries; their conditions need not be identical. Equal values may be shown once. Inconclusive results and toxic doses are left out. Cut-off read from the data, not from the text of the source: active = T/C of 150% or more; inactive = T/C below 125%.

Tested on: L1210 leukemia ip in BDF1 mice, survival T/C
Test: NCI In Vivo Anticancer Drug Screen. Data for tumor model L1210 Leukemia (intraperitoneal) in B6D2F1 (BDF1) mice
Settings: endpoint: mean survival time, higher = longer survival
How it was run: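 In this screen, tumor-bearing mice given compound are compared to those given vehicle, and their survival values are reported as a treated-to-control quotient.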

[1] = dose: 50.0 mg/kg/injection, schedule: Q01DX009 (ip), vehicle: other
[2] = dose: 100.0 mg/kg/injection, schedule: Q01DX009 (ip), vehicle: Klucel (hydroxypropylcellulose) (HPC)
[3] = dose: 200.0 mg/kg/injection, schedule: Q01DX009 (ip), vehicle: Klucel (hydroxypropylcellulose) (HPC)
[4] = dose: 400.0 mg/kg/injection, schedule: Q01DX009 (ip), vehicle: Klucel (hydroxypropylcellulose) (HPC)
[5] = dose: 100.0 mg/kg/injection, schedule: Q01DX009 (ip), vehicle: saline with Tween-80
[6] = dose: 100.0 mg/kg/injection, schedule: Q04DX003 (ip), vehicle: saline with Tween-80
[7] = dose: 200.0 mg/kg/injection, schedule: Q01DX009 (ip), vehicle: saline with Tween-80
[8] = dose: 200.0 mg/kg/injection, schedule: Q04DX003 (ip), vehicle: saline with Tween-80
[9] = dose: 200.0 mg/kg/injection, schedule: Q01DX001 (ip), vehicle: saline
[10] = dose: 400.0 mg/kg/injection, schedule: Q01DX001 (ip), vehicle: saline
[11] = dose: 100.0 mg/kg/injection, schedule: Q04DX003 (ip), vehicle: Klucel (hydroxypropylcellulose) (HPC)
[12] = dose: 200.0 mg/kg/injection, schedule: Q04DX003 (ip), vehicle: Klucel (hydroxypropylcellulose) (HPC)
[13] = dose: 400.0 mg/kg/injection, schedule: Q04DX003 (ip), vehicle: Klucel (hydroxypropylcellulose) (HPC)
[14] = dose: 100.0 mg/kg/injection, schedule: Q01DX009 (ip), vehicle: other
[15] = dose: 200.0 mg/kg/injection, schedule: Q01DX009 (ip), vehicle: other

Measured: T/C

NC(=S)NNC(=O)Nc1ccc(F)c(Cl)c1
inactive: dose: 12.5 mg/kg/injection, schedule: Q01DX009 (ip), vehicle: other 94 % of control | dose: 25.0 mg/kg/injection, schedule: Q01DX009 (ip), vehicle: other 93 % of control | [1] 96 % of control

C=CCNC(=S)NCc1cccc2ccccc12
inactive: [2] 98 % of control | [3] 111 % of control | [4] 88 % of control

CCCCN(CCCC)c1ccc(C(=O)O)cc1
inactive: [5] 100 % of control | [6] 100 % of control | [7] 102 % of control | [8] 98 % of control

CCCc1cc2c3c(c(=O)oc2cc1OC)CCCC3
inactive: [6] 93 % of control | [8] 104 % of control | dose: 400.0 mg/kg/injection, schedule: Q04DX003 (ip), vehicle: saline with Tween-80 93 % of control

COc1ccc(/C=N/NC(=S)Nc2ccccn2)cc1OC
inactive: dose: 25.0 mg/kg/injection, schedule: Q01DX009 (ip), vehicle: saline with Tween-80 104 % of control | dose: 50.0 mg/kg/injection, schedule: Q01DX009 (ip), vehicle: saline with Tween-80 93 % of control | [5] 122 % of control

CC(C)NC(=S)Nc1ccccc1
inactive: dose: 75.0 mg/kg/injection, schedule: Q01DX001 (ip), vehicle: other 102 % of control

CCOC(CNC(=O)c1cccc([N+](=O)[O-])c1)OCC
inactive: dose: 50.0 mg/kg/injection, schedule: Q01DX009 (ip), vehicle: Klucel (hydroxypropylcellulose) (HPC) 87 % of control | [2] 98 % of control | [3] 102 % of control

c1ccc([P+](Cc2cccc(C[P+](c3ccccc3)(c3ccccc3)c3ccccc3)c2)(c2ccccc2)c2ccccc2)cc1
inactive: dose: 1.2 mg/kg/injection, schedule: Q01DX001 (ip), vehicle: acetone 107 % of control | dose: 2.5 mg/kg/injection, schedule: Q01DX001 (ip), vehicle: acetone 99 % of control

CCC(CC)N(C)C(C)(C)CO
inactive: dose: 100.0 mg/kg/injection, schedule: Q04DX003 (ip), vehicle: saline sonified 90 % of control | dose: 200.0 mg/kg/injection, schedule: Q04DX003 (ip), vehicle: saline sonified 87 % of control

CCC(C)C(CN)(CCN1CCCCC1)Cc1cccc2ccccc12 (centres undefined)
inactive: dose: 12.5 mg/kg/injection, schedule: Q04DX003 (ip), vehicle: saline + alcohol 96 % of control | dose: 25.0 mg/kg/injection, schedule: Q04DX003 (ip), vehicle: saline + alcohol 93 % of control | dose: 50.0 mg/kg/injection, schedule: Q04DX003 (ip), vehicle: saline + alcohol 96 % of control

NS(=O)(=O)N1CCCCC1
inactive: dose: 9.5 mg/kg/injection, schedule: Q01DX001 (ip), vehicle: saline 104 % of control | dose: 19.0 mg/kg/injection, schedule: Q01DX001 (ip), vehicle: saline 104 % of control | dose: 38.0 mg/kg/injection, schedule: Q01DX001 (ip), vehicle: saline 95 % of control

O=C1C(c2ccccc2)=C2C(=C1c1ccccc1)c1cccc3cccc2c13
inactive: dose: 50.0 mg/kg/injection, schedule: Q01DX001 (ip), vehicle: saline 97 % of control | dose: 100.0 mg/kg/injection, schedule: Q01DX001 (ip), vehicle: saline 97 % of control | [5] 92 % of control | [9] 100 % of control | [7] 103 % of control | [10] 120 % of control | dose: 400.0 mg/kg/injection, schedule: Q01DX009 (ip), vehicle: saline with Tween-80 97 % of control

Cc1ccc(S(=O)(=O)Oc2ccccc2)cc1
inactive: [2] 96 % of control | [11] 94 % of control | [3] 100 % of control | [12] 94 % of control | [4] 97 % of control | [13] 92 % of control

CCOC(=O)Cn1c(=O)ssc1=O
inactive: dose: 25.0 mg/kg/injection, schedule: Q04DX003 (ip), vehicle: saline 100 % of control | dose: 50.0 mg/kg/injection, schedule: Q04DX003 (ip), vehicle: saline 100 % of control | dose: 100.0 mg/kg/injection, schedule: Q04DX003 (ip), vehicle: saline 100 % of control

Nc1nccc(NC(c2ccccc2)c2ccccc2)c1N
inactive: dose: 12.5 mg/kg/injection, schedule: Q01DX001 (ip), vehicle: other 96 % of control | dose: 12.5 mg/kg/injection, schedule: Q01DX009 (ip), vehicle: DMSO 95 % of control | dose: 12.5 mg/kg/injection, schedule: Q04DX003 (ip), vehicle: other 96 % of control | dose: 25.0 mg/kg/injection, schedule: Q01DX001 (ip), vehicle: other 96 % of control | dose: 25.0 mg/kg/injection, schedule: Q04DX003 (ip), vehicle: other 96 % of control | dose: 50.0 mg/kg/injection, schedule: Q01DX001 (ip), vehicle: other 98 % of control | dose: 50.0 mg/kg/injection, schedule: Q04DX003 (ip), vehicle: other 89 % of control

CC(C)(C)NC(=O)Oc1ccc2ccccc2c1
inactive: [14] 96 % of control | [15] 102 % of control | dose: 400.0 mg/kg/injection, schedule: Q01DX009 (ip), vehicle: other 100 % of control

c1csc(Cc2cccs2)c1
inactive: [1] 112 % of control | [14] 112 % of control | [15] 116 % of control

Cc1ccc(C)c(NC(=O)Oc2ccc3ccccc3c2)c1
inactive: [2] 93 % of control | [11] 107 % of control | [12] 107 % of control | [4] 91 % of control | [13] 97 % of control

O=C(Nc1ccc(F)cc1)OCC1CCCO1 (centres undefined)
inactive: dose: 100.0 mg/kg/injection, schedule: Q01DX001 (ip), vehicle: carboxymethylcellulose (CMC) 100 % of control | dose: 100.0 mg/kg/injection, schedule: Q01DX009 (ip), vehicle: carboxymethylcellulose (CMC) 102 % of control and 103 % of control | dose: 100.0 mg/kg/injection, schedule: Q04DX002 (ip), vehicle: carboxymethylcellulose (CMC) 100 % of control and 102 % of control | dose: 200.0 mg/kg/injection, schedule: Q01DX001 (ip), vehicle: carboxymethylcellulose (CMC) 103 % of control | dose: 200.0 mg/kg/injection, schedule: Q01DX009 (ip), vehicle: carboxymethylcellulose (CMC) 92 % of control and 97 % of control | dose: 200.0 mg/kg/injection, schedule: Q04DX002 (ip), vehicle: carboxymethylcellulose (CMC) 95 % of control and 98 % of control | dose: 400.0 mg/kg/injection, schedule: Q01DX001 (ip), vehicle: carboxymethylcellulose (CMC) 92 % of control | dose: 400.0 mg/kg/injection, schedule: Q01DX009 (ip), vehicle: carboxymethylcellulose (CMC) 96 % of control and 102 % of control | dose: 400.0 mg/kg/injection, schedule: Q04DX002 (ip), vehicle: carboxymethylcellulose (CMC) 92 % of control and 96 % of control

O=C(OC1CCC/C=C\CCCC1)c1ccc(Cl)cc1 (centres undefined)
inactive: [9] 104 % of control | [10] 98 % of control

COC(=O)CC(CC(=O)OC)c1ccc(OC)c([N+](=O)[O-])c1
inactive: dose: 25.6 mg/kg/injection, schedule: Q04DX002 (ip), vehicle: saline with Tween-80 101 % of control | dose: 64.0 mg/kg/injection, schedule: Q04DX002 (ip), vehicle: saline with Tween-80 101 % of control | dose: 160.0 mg/kg/injection, schedule: Q04DX002 (ip), vehicle: saline with Tween-80 97 % of control | dose: 400.0 mg/kg/injection, schedule: Q04DX002 (ip), vehicle: saline with Tween-80 93 % of control
